Results published in ChEMBL document CHEMBL5214903, “Diversity-oriented synthesis as a tool to expand the chemical space of DNA-encoded libraries” (Bioorg Med Chem, 2021).
Each block holds one molecule with its values, some of them ahead of it.

Assays:
[1] = Inhibition of Aurora (unknown origin); set-up: species or system Homo sapiens
[2] = molecular target: Histone acetyltransferase p300 (Homo sapiens, UniProt Q09472); test: Inhibition of p300 (unknown origin) using [3H]-Ac-CoA as substrate preincubated for 15 mins followed by substrate addition and measured after 60 mins by Flashplate assay
[3] = molecular target: E3 ubiquitin-protein ligase Mdm2 (Homo sapiens, UniProt Q00987); test: Binding affinity to MDM2 (unknown origin) assessed as dissociation constant
[4] = molecular target: Bromodomain-containing protein 3 (Homo sapiens, UniProt Q15059); test: Binding affinity to recombinant human BRD3 bromodomain-1 (44 to 168 residues) expressed in Escherichia coli BL21 (DE3) cells assessed as inhibition constant by fluorescence polarization assay
[5] = molecular target: Transcriptional enhancer factor TEF-3 (Homo sapiens, UniProt Q15561); test: Inhibition of YAP binding to human TEAD4 by fluorescence polarization assay
Chain of Transcriptional enhancer factor TEF-3 (Q15561 whole entry): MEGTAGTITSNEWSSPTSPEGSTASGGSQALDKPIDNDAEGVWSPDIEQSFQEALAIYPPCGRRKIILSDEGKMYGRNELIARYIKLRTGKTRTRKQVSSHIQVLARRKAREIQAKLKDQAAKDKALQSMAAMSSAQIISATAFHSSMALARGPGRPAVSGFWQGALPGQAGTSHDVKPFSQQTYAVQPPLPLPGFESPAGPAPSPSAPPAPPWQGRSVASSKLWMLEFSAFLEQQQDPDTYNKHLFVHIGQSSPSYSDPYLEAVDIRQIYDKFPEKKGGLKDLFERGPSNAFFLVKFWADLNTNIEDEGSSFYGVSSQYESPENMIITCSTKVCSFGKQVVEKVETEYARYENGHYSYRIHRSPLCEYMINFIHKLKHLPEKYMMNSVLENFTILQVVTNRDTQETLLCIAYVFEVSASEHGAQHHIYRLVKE

Chain of Histone acetyltransferase p300 (Q09472 whole entry): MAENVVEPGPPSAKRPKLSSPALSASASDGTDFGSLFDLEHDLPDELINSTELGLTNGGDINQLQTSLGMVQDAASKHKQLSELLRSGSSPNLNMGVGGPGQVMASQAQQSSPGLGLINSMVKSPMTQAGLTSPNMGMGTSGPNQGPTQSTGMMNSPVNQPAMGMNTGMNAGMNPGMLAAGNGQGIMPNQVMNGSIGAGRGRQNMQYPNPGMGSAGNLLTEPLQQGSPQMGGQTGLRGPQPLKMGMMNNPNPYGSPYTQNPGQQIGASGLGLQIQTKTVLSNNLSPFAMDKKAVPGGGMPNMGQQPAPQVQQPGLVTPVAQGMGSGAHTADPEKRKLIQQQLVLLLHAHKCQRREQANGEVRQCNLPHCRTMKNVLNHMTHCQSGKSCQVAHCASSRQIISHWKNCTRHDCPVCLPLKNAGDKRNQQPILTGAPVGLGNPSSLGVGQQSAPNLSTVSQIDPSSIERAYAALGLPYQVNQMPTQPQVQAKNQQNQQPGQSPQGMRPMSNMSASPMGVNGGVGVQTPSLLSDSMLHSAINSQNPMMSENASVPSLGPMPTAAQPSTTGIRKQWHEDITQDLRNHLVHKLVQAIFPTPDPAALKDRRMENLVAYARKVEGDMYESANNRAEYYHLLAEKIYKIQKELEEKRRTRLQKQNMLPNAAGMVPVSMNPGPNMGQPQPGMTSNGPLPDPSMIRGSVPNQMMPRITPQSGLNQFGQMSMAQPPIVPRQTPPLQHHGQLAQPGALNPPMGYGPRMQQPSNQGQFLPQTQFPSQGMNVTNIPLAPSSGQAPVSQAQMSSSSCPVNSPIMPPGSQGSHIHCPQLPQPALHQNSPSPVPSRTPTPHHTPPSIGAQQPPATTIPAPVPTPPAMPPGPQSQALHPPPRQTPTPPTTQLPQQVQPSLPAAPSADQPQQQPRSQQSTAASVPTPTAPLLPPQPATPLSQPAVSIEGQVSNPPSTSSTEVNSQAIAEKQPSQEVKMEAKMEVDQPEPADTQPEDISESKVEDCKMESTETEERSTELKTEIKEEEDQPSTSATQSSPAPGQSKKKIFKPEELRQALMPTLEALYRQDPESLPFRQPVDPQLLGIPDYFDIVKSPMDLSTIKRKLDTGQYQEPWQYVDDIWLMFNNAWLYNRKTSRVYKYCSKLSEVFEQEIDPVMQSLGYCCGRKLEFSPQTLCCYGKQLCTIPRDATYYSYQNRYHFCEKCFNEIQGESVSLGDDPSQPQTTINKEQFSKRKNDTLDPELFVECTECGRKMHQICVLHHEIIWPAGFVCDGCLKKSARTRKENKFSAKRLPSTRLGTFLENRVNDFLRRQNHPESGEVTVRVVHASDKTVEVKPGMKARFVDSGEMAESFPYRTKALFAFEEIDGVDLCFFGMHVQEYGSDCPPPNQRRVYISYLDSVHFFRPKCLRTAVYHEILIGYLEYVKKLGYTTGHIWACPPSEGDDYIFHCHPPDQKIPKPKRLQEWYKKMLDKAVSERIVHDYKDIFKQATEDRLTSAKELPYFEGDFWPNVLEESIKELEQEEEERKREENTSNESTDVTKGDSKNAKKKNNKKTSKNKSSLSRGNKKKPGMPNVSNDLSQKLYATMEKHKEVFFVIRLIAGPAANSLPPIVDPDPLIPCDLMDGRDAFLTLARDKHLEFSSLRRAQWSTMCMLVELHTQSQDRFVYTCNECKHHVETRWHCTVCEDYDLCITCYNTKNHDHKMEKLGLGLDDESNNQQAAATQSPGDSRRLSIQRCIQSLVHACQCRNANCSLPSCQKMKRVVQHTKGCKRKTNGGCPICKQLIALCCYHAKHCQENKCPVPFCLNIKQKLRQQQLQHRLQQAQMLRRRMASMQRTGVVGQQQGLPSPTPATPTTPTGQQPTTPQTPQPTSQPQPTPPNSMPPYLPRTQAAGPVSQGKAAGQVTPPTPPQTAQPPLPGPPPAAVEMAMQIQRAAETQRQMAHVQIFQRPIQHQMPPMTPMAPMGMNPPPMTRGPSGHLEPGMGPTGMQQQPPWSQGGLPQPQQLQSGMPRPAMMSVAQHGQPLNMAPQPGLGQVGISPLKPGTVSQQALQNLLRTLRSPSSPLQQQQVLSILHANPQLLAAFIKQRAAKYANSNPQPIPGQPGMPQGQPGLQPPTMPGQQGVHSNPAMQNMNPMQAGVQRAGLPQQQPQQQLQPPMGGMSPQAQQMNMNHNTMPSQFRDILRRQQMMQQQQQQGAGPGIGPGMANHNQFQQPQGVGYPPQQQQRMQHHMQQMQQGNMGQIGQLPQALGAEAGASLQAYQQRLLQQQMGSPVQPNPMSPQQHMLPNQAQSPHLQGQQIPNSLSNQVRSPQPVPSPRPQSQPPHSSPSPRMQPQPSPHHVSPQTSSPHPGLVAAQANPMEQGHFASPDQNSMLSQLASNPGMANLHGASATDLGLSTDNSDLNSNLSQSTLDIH
Chain of E3 ubiquitin-protein ligase Mdm2 (Q00987 whole entry, the tested form may be a part): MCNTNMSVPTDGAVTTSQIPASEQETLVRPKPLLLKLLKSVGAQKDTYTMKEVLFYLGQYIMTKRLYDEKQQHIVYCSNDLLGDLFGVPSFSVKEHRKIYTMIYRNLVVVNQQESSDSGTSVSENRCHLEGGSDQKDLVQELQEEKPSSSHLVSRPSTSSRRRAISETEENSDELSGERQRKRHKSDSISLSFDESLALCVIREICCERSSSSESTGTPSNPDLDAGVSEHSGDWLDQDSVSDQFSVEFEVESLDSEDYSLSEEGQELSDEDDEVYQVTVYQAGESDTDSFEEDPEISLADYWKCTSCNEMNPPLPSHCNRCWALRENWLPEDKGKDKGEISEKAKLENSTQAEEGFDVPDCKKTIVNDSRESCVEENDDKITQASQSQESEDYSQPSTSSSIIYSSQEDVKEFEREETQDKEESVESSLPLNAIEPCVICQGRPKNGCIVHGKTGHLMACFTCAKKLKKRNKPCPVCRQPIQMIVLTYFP
Chain of Bromodomain-containing protein 3 (Q15059 whole entry, the tested form may be a part): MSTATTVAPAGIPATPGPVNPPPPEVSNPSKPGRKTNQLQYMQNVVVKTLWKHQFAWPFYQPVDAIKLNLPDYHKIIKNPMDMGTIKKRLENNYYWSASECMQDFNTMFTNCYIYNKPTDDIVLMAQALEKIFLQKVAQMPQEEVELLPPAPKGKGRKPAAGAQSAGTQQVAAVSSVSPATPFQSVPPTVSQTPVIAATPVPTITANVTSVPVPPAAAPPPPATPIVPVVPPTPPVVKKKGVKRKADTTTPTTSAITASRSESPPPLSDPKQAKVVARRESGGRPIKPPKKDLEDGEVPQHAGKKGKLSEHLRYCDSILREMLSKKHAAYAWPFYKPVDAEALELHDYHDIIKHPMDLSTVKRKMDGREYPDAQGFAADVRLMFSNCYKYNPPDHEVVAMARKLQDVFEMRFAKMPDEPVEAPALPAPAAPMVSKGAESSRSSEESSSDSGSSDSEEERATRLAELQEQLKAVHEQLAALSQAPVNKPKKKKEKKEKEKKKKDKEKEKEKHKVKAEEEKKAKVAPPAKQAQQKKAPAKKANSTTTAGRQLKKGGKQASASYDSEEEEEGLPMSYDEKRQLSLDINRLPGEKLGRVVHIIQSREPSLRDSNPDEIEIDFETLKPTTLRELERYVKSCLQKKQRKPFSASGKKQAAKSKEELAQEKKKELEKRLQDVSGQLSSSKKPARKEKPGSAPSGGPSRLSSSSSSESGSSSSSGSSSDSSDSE

SMILES: CC(C)(C)OC(=O)C1CC2CSCN2C12C(=O)Nc1cc(-c3ccc4c(c3)CC(=O)N4)ccc12 (stereo not given)
IC50 [1]: 45 µM

SMILES: COC(=O)C1CC2CSCN2C12C(=O)Nc1ccc(NCc3ccc([N+](=O)[O-])cc3OCC(=O)O)cc12 (stereo not given)
IC50 [2]: 45 µM

SMILES: COc1cc(/C=C/C(=O)Nc2ccc3c(c2)C2(C(=O)N3)C(C(=O)OC(C)(C)C)CC3CSCN32)cc(OC)c1OC (stereo not given)
Ki [4]: 0.131 µM

Further lines, results first:

Kd [3]: 33 µM
SMILES: Cc1ccc(NC(=O)Cn2cc(CN(C(=O)CCC(=O)OC(C)(C)C)C(C(=O)NC3CCCCC3)c3c[nH]c4cc(Cl)ccc34)nn2)c(C)c1 (stereo not given)

IC50 [5]: 0.51 µM
SMILES: Cc1ccn2cc(Cn3cc(CN(C(=O)CCC(=O)OC(C)(C)C)C(C(=O)NC4C[C@@H]5CC[C@]4(C)C5(C)C)c4c[nH]c5cc(Cl)ccc45)nn3)nc2c1 (stereo not given in full)
